23 compounds from PubChem BioAssay (NCI) can be followed below.

The structures appear in SMILES notation.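 Results reflect a 48-hour exposure of cells in 96-well plates to compound at five concentrations. GI50 = concentration required for 50% inhibition of growth. TGI denotes the concentration required for complete inhibition of growth.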 Where a SMILES comes first, the peptide text is derived from it. [ ]: non-standard residue; d: D form. The star is where a group is joined. Phe(4-NO2) = N[CH](Cc1ccc([N+](=O)[O-])cc1)C(=O)O; Boc = CC(C)(C)OC(=O)*

Among the test systems are COLO 205 colon; HCT-15 colon; K-562 leukemia; MDA-MB-435; PC-3 prostate; SK-OV-3 ovarian; SNB-75 CNS; T-47D breast; U251 CNS; HCC-2998 colon.
Assay in all cases: NCI anticancer screen, dose series, 48 h

As to `Cc1ccc(N=C/C=C(\Nc2ccc(C)cc2)c2ccc3ccccc3c2)cc1`, the TGI was 2.38 µM in the assay on COLO 205 colon; 4.24 µM with HCT-15 colon; 2.72 µM with K-562 leukemia; 0.493 µM with MDA-MB-435; 18 µM with PC-3 prostate; 9.71 µM in the assay on SK-OV-3 ovarian. Also, the TGI in the assay on SNB-75 CNS was 6.16 µM; in the assay on T-47D breast it was 23.7 µM; in the assay on U251 CNS it was 7.23 µM.
As to `CC(C)[C@H](C)/C=C/[C@@H](C)C1CC[C@H]2[C@@]34C=C[C@]5(C[C@@H](O)CC[C@]5(C)[C@H]3CC[C@]12C)OO4` (some centres not stated), the TGI is over 100 µM in the assay on COLO 205 colon; 50.9 µM with HCC-2998 colon; over 100 µM in the assay on HCT-15 colon; 91.6 µM in the assay on MDA-MB-435; over 100 µM in the assay with SK-OV-3 ovarian; over 100 µM in the assay on SNB-75 CNS. The results for the TGI in the assay with T-47D breast and with U251 CNS were over 100 µM and 58.5 µM, respectively.
On to `C/C(=N\Nc1nc2ccccc2[nH]1)c1ncccn1`, for which the TGI was over 49.6 µM in the assay with COLO 205 colon; over 100 µM in the assay on HCC-2998 colon; over 100 µM in the assay with HCT-15 colon; over 100 µM with K-562 leukemia; over 66 µM with PC-3 prostate; over 100 µM with SK-OV-3 ovarian. Besides, the TGI with SNB-75 CNS is over 90.3 µM; in the assay on T-47D breast it was over 100 µM; in the assay with U251 CNS it was over 100 µM.
Consider `COC(=O)[C@@H](NS(=O)(=O)CC12CCC(CC1)C2(C)C)C(C)(C)C`, for which the TGI in the assay on COLO 205 colon, with HCC-2998 colon, with HCT-15 colon, in the assay on K-562 leukemia, in the assay with MDA-MB-435 and with SK-OV-3 ovarian was over 100 µM throughout. Besides, the TGI with SNB-75 CNS, in the assay on T-47D breast and in the assay with U251 CNS was over 100 µM in each case.
For `Cc1ccc(S(=O)(=O)OCCC2CN(C(=O)OCc3ccccc3)C(C)(C)O2)cc1` (configuration not stated), the TGI in the assay on COLO 205 colon was over 100 µM; in the assay on HCC-2998 colon, 72.7 µM; in the assay on HCT-15 colon, 32.5 µM; with K-562 leukemia it was over 100 µM; in the assay on MDA-MB-435, 22.5 µM; in the assay on PC-3 prostate, 50 µM. Besides, the TGI in the assay on SK-OV-3 ovarian and with U251 CNS was over 100 µM in each case.
Turning to `Cc1cc(=O)[nH]c(NNC(C#N)c2ccccc2O)n1` (configuration not stated), the TGI in the assay with COLO 205 colon, in the assay with HCT-15 colon, in the assay on K-562 leukemia, with SK-OV-3 ovarian, with SNB-75 CNS and with U251 CNS was over 100 µM in each case.
As to `Cn1c2ccccc2n2c3ncccc3c(=O)cc12`, the TGI in the assay with COLO 205 colon, in the assay on HCT-15 colon, with K-562 leukemia, in the assay on MDA-MB-435, with SK-OV-3 ovarian and with SNB-75 CNS was over 100 µM in each case. Further, the TGI in the assay with T-47D breast and with U251 CNS was over 100 µM each time.
As for `CCOC(=O)CCC(NC(=O)C(Cc1ccc([N+](=O)[O-])cc1)NC(=O)OC(C)(C)C)C(=O)NC(CCC(=O)OCC)C(=O)OCC` (configuration not stated) (Boc-[Phe(4-NO2)]-Glu(OEt)-Glu(OEt)-OEt; configuration not given here), the TGI is 57.1 µM in the assay on COLO 205 colon; 30.9 µM in the assay with HCC-2998 colon; over 100 µM in the assay with HCT-15 colon; 39.5 µM in the assay on PC-3 prostate; 31.5 µM in the assay on SNB-75 CNS; 44.6 µM with U251 CNS.
On to `CC(c1ccccc1)n1cncc1C(=O)NN1CCN(C)CC1` (configuration not stated), for which the TGI with COLO 205 colon, in the assay with HCT-15 colon, in the assay on K-562 leukemia, in the assay on MDA-MB-435, in the assay with PC-3 prostate and with SK-OV-3 ovarian was over 10 µM in each case. The TGI in the assay with T-47D breast and in the assay with U251 CNS was over 10 µM in each case.
As to `COc1ccc(/C=c2\[nH]c3nc(=O)c(N4CCCCC4)c(N)n3c2=O)cc1`, the TGI in the assay on COLO 205 colon, in the assay on HCC-2998 colon, in the assay on HCT-15 colon, in the assay on K-562 leukemia, in the assay with MDA-MB-435 and in the assay on SK-OV-3 ovarian was over 100 µM throughout. For the same compound, the TGI was 78.7 µM with SNB-75 CNS, over 100 µM with T-47D breast and over 100 µM with U251 CNS.
Turning to `Cc1ccc(N2C(=O)C3CSCN3C2=O)cc1` (configuration not stated), the TGI in the assay with COLO 205 colon, in the assay with HCC-2998 colon, in the assay with HCT-15 colon, with K-562 leukemia, with SK-OV-3 ovarian and in the assay with SNB-75 CNS was over 100 µM throughout. Further, the TGI in the assay on U251 CNS is over 100 µM.
Take `CC(C)(C)OC(=O)C(C#N)C(=O)c1ccc(C(=O)O)[nH]1` (configuration not stated): the TGI in the assay on COLO 205 colon, in the assay with HCT-15 colon, in the assay with K-562 leukemia, in the assay on MDA-MB-435, with PC-3 prostate and with SK-OV-3 ovarian was over 100 µM in each case. In addition, the TGI with SNB-75 CNS, in the assay on T-47D breast and with U251 CNS was over 100 µM throughout.
With `Cc1cc(C)c2c(c1)C/C(=C\c1cccc(C)c1C(=O)O)C2=O`, the TGI in the assay on HCC-2998 colon, in the assay on HCT-15 colon, in the assay on K-562 leukemia, in the assay on PC-3 prostate, in the assay on SNB-75 CNS and with T-47D breast was over 100 µM each time.
Consider `O=C1c2ccncc2C(=O)c2c(O)ccc(O)c21`, for which the TGI in the assay on COLO 205 colon worked out at 13.1 µM; in the assay on HCC-2998 colon it was 16.3 µM; with HCT-15 colon, 24.3 µM; in the assay on K-562 leukemia, 55.5 µM; in the assay on SNB-75 CNS, 49.1 µM; with U251 CNS, 30.3 µM.
On to `COc1c(C)c(C/C=C(\C)CCCC(C)CCCC(C)CCCC(C)C)c(OC)c2ccccc12` (configuration not stated), for which the TGI in the assay with COLO 205 colon, in the assay with HCC-2998 colon, with HCT-15 colon, in the assay with K-562 leukemia, with MDA-MB-435 and in the assay on PC-3 prostate was over 100 µM each time. Also, the TGI in the assay with SK-OV-3 ovarian, in the assay on SNB-75 CNS and in the assay on U251 CNS was over 100 µM each time.
Consider `O=c1[nH]n(CCc2ccccc2CCl)c2ccc([N+](=O)[O-])cc12`, for which the TGI in the assay with COLO 205 colon, with HCC-2998 colon, with HCT-15 colon, in the assay with K-562 leukemia, with MDA-MB-435 and in the assay on PC-3 prostate was over 100 µM each time. The compound further gave a TGI in the assay on U251 CNS of over 100 µM.
Turning to `Cc1cc(S(=O)(=O)Nc2nc3cscc3c(=O)n2N)c(S)cc1Cl`, the TGI in the assay on COLO 205 colon, with HCC-2998 colon, in the assay with HCT-15 colon, in the assay on K-562 leukemia, in the assay on MDA-MB-435 and in the assay with PC-3 prostate was over 100 µM in each case. The TGI is over 100 µM with SK-OV-3 ovarian, 58.5 µM in the assay with SNB-75 CNS and over 100 µM in the assay with U251 CNS.
On to `CCOC(=O)C1CCC(=O)N1C(=O)c1cccc(Cl)c1` (configuration not stated), for which the TGI in the assay on HCT-15 colon, in the assay on K-562 leukemia, in the assay with MDA-MB-435, in the assay on PC-3 prostate, with SNB-75 CNS and in the assay on T-47D breast was over 100 µM in each case. This compound also displayed a TGI with U251 CNS of over 100 µM.
Consider `COc1cc2c3c(n(C)c(=O)c2cc1OC)-c1cc2c(cc1/C3=C\CCCCCBr)OCO2`, for which the TGI in the assay with COLO 205 colon was over 100 µM; in the assay with HCT-15 colon it was over 100 µM; in the assay on K-562 leukemia, 30.2 µM; in the assay with MDA-MB-435, over 100 µM; in the assay with PC-3 prostate, over 100 µM; with SK-OV-3 ovarian, 79.3 µM. Moreover, the TGI with SNB-75 CNS stood at 43 µM; with T-47D breast, 7.92 µM; in the assay with U251 CNS, 24.1 µM. For the same compound, the GI50 in the assay with MDA-MB-435 is 19.2 µM.
Turning to `O=C(O)Cn1c2c(c3c1-c1ccccc1C3=O)C(=O)CCC2`, the GI50 with COLO 205 colon, in the assay with HCC-2998 colon, with HCT-15 colon, in the assay with K-562 leukemia, in the assay with MDA-MB-435 and with SK-OV-3 ovarian was over 100 µM in each case. The GI50 with SNB-75 CNS, in the assay with T-47D breast and in the assay with U251 CNS was over 100 µM in each case. The TGI with COLO 205 colon, in the assay with HCC-2998 colon, with HCT-15 colon, in the assay on K-562 leukemia, in the assay on MDA-MB-435 and in the assay on SK-OV-3 ovarian was over 100 µM throughout. Moreover, the TGI with SNB-75 CNS, in the assay on T-47D breast and in the assay with U251 CNS was over 100 µM in each case.
For the compound `O=C(c1ccccc1)c1nnn(Cc2ccccc2Cn2nnc(C(=O)c3ccccc3)c2C(=O)c2ccccc2)c1C(=O)c1ccccc1`, the TGI with COLO 205 colon, in the assay on HCC-2998 colon, in the assay with HCT-15 colon, with K-562 leukemia, in the assay on SK-OV-3 ovarian and with SNB-75 CNS was over 100 µM each time. In the assay with U251 CNS, this compound gave a TGI of over 100 µM.
For the compound `Cc1cn(C2CC(COCc3ccccc3)N(CCO[Si](C)(C)C(C)(C)C)O2)c(=O)[nH]c1=O` (configuration not stated), the TGI with COLO 205 colon stood at 28.4 µM; in the assay on K-562 leukemia it was 19.3 µM; with MDA-MB-435, 34.9 µM; in the assay with PC-3 prostate, 18.1 µM; with SK-OV-3 ovarian, 31.4 µM; with T-47D breast it was 31.1 µM. This compound had a TGI in the assay on U251 CNS of 62.5 µM.
As for `CCC1=C(C[C@H]2NCCc3cc(OC)c(OC)cc32)C[C@H]2c3cc(OC)c(OC)cc3CCN2C1`, the TGI turned out to be 0.0964 µM in the assay on HCC-2998 colon; 1.02 µM with HCT-15 colon; 0.73 µM with SK-OV-3 ovarian; 0.107 µM in the assay on SNB-75 CNS; 0.188 µM with U251 CNS.
